18 substances from patent US20080145313A1, “Compositions and Methods for the Treatment and Prevention of Neoplastic Disorders” (Genesis Research & Development Corporation Limited, priority 2006, published 2008) can be followed below.

In series [1] the test system is target transcript mRNA in A549 cells. The series is described as follows: Level of mRNA of target transcript in A549 cells by quantitative RT-PCR (Tables 12 and 13). The format is cell-based, human. The settings on record: 24 h post-transfection. In short, it runs like this: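 A549 cells were transfected with siRNA at 0.1, 1.0 and 10 nM. RNA was extracted 24 h later, reverse-transcribed with random primers, and target mRNA quantified by SYBR Green qRT-PCR. Values were normalised to housekeeping genes HPRT and Lamin.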

Series [2] has as its system A549 cells. The experiment in a line: Growth inhibition of siRNA-transfected A549 cells, SYBR Green I DNA content. Type of series: cell-based, human. The following applies: 10 nM siRNA, DNA content 96 hours after transfection; for Growth Inhibition in A549 cells by 10 nM siRNA: transporter gene targets. The method in brief: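 A549 cells reverse-transfected with 10 nM Stealth siRNAs via Lipofectamine RNAiMAX, seeded at 5×10^3 cells/cm^2 in RPMI 1640/10% FCS; non-specific siRNA control. DNA content read 96 h post-transfection by SYBR Green I fluorescence (ex 485/em 535 nm) after freeze-thaw and Triton X-100 lysis; mean of three wells.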

Turning to “SEQ ID NO: 4929: siRNA targeting SLC25A10 (DIC) (chain 1 TAGGTCATCTGTCTGCACAGCGAGG; chain 2 UAGGUCAUCUGUCUGCACAGCGAGG; chemistry not given here; one strand in two spellings)”, in series [1] (0.1 nM siRNA), the “mRNA knockdown of transporter gene target transcript, 0.1 nM” value is on record as “− (<50% mRNA knockdown)”. The “mRNA knockdown of transporter gene target transcript, 1 nM” value in series [1] (1 nM siRNA) is “+ (50-70% mRNA knockdown)”. Besides, the “Growth Inhibition in A549 cells by 10 nM siRNA” value in series [2] is “− (no growth inhibition)”.
Regarding “SEQ ID NO: 4960: siRNA targeting ATP6V1E1 (chain 1 TGGCATTTGCACCAAACAAGGCTCC; chain 2 UGGCAUUUGCACCAAACAAGGCUCC; chemistry not given here; one strand in two spellings)”, the “mRNA knockdown of transporter gene target transcript, 0.1 nM” value in series [1] (0.1 nM siRNA) was “− (<50% mRNA knockdown)”. Further, the “mRNA knockdown of transporter gene target transcript, 1 nM” value in series [1] (1 nM siRNA) is reported as “+ (50-70% mRNA knockdown)”. Moreover, the “Growth Inhibition in A549 cells by 10 nM siRNA” value in series [2] was “− (no growth inhibition)”.
Turning to “SEQ ID NO: 4921: siRNA targeting SLC9A1 (NHE1) (chain 1 ATCAGTGACGGAATGATTAACAGGG; chain 2 AUCAGUGACGGAAUGAUUAACAGGG; chemistry not given here; one strand in two spellings)”, in series [1] (0.1 nM siRNA), the “mRNA knockdown of transporter gene target transcript, 0.1 nM” value is reported as “++ (70-90% mRNA knockdown)”. Moreover, the “mRNA knockdown of transporter gene target transcript, 1 nM” value in series [1] (1 nM siRNA) is “++ (70-90% mRNA knockdown)”. Further, in series [2], the “Growth Inhibition in A549 cells by 10 nM siRNA” value is “− (no growth inhibition)”.
As to “SEQ ID NO: 4908: siRNA targeting SLC3A2 (4F2hc) (chain 1 AAGTTGAGCCGGCAAGAAGGAAGTC; chain 2 AAGUUGAGCCGGCAAGAAGGAAGUC; Antisense strand given in DNA and RNA notation, chemistry not given here; one strand in two spellings)”, in series [1] (0.1 nM siRNA), the “mRNA knockdown of transporter gene target transcript, 0.1 nM” value is reported as “− (<50% mRNA knockdown)”. Further, the “mRNA knockdown of transporter gene target transcript, 1 nM” value in series [1] (1 nM siRNA) is given as “+ (50-70% mRNA knockdown)”. Moreover, the “Growth Inhibition in A549 cells by 10 nM siRNA” value in series [2] is listed as “++ (inhibits by at least 75%)”.
“SEQ ID NO: 4959: siRNA targeting ATP6V1E1 (chain 1 TGGTCAATTTGGACATCAACATCGT; chain 2 UGGUCAAUUUGGACAUCAACAUCGU; chemistry not given here; one strand in two spellings)”: the “mRNA knockdown of transporter gene target transcript, 0.1 nM” value in series [1] (0.1 nM siRNA) is listed as “− (<50% mRNA knockdown)”. Besides, in series [1] (1 nM siRNA), the “mRNA knockdown of transporter gene target transcript, 1 nM” value is reported as “++ (70-90% mRNA knockdown)”. Also, the “Growth Inhibition in A549 cells by 10 nM siRNA” value in series [2] is reported as “− (no growth inhibition)”.
“SEQ ID NO: 4922: siRNA targeting SLC16A1 (MCT1) (chain 1 ATAGGTAGTGGATAAAGGTGCTAGC; chain 2 AUAGGUAGUGGAUAAAGGUGCUAGC; chemistry not given here; one strand in two spellings)”: in series [1] (0.1 nM siRNA), the “mRNA knockdown of transporter gene target transcript, 0.1 nM” value was “+ (50-70% mRNA knockdown)”. Moreover, the “mRNA knockdown of transporter gene target transcript, 1 nM” value in series [1] (1 nM siRNA) is “++ (70-90% mRNA knockdown)”. Also, the “mRNA knockdown of transporter gene target transcript, 10 nM” value in series [1] (10 nM siRNA) was “+++ (>90% mRNA knockdown)”. Further, in series [2], the “Growth Inhibition in A549 cells by 10 nM siRNA” value is “+ (inhibits by at least 50%)”.
In the case of “SEQ ID NO: 4971: siRNA targeting ABCC4 (MRP4) (chain 1 CAATAATGGTGTTCAATCTGTGTGC; chain 2 CAAUAAUGGUGUUCAAUCUGUGUGC; chemistry not given here; one strand in two spellings)”, the “mRNA knockdown of transporter gene target transcript, 0.1 nM” value in series [1] (0.1 nM siRNA) is “− (<50% mRNA knockdown)”. In addition, the “mRNA knockdown of transporter gene target transcript, 1 nM” value in series [1] (1 nM siRNA) was “++ (70-90% mRNA knockdown)”. The “Growth Inhibition in A549 cells by 10 nM siRNA” value in series [2] is recorded as “− (no growth inhibition)”.
Regarding “SEQ ID NO: 4894: siRNA targeting SLC2A1 (GLUT1) (chain 1 TGACACTTCACCCACATACATGGGC; chain 2 UGACACUUCACCCACAUACAUGGGC; Antisense strand given in DNA and RNA notation, chemistry not given here; one strand in two spellings)”, the “mRNA knockdown of transporter gene target transcript, 0.1 nM” value in series [1] (0.1 nM siRNA) is given as “− (<50% mRNA knockdown)”. Besides, the “mRNA knockdown of transporter gene target transcript, 1 nM” value in series [1] (1 nM siRNA) is given as “++ (70-90% mRNA knockdown)”. Besides, in series [2], the “Growth Inhibition in A549 cells by 10 nM siRNA” value is given as “− (no growth inhibition)”.
Turning to “SEQ ID NO: 4969: siRNA targeting ATP7B (chain 1 AAGGGAGCCACTTTGCTCTTGATGG; chain 2 AAGGGAGCCACUUUGCUCUUGAUGG; chemistry not given here; one strand in two spellings)”, in series [1] (0.1 nM siRNA), the “mRNA knockdown of transporter gene target transcript, 0.1 nM” value is given as “− (<50% mRNA knockdown)”. Moreover, the “mRNA knockdown of transporter gene target transcript, 1 nM” value in series [1] (1 nM siRNA) is recorded as “++ (70-90% mRNA knockdown)”. The “Growth Inhibition in A549 cells by 10 nM siRNA” value in series [2] was “− (no growth inhibition)”.
As to “SEQ ID NO: 4900: siRNA targeting SLC2A12 (GLUT12) (chain 1 TTGAAATATAGGCAGAAAGAATGCC; chain 2 UUGAAAUAUAGGCAGAAAGAAUGCC; Antisense strand given in DNA and RNA notation, chemistry not given here; one strand in two spellings)”, the “mRNA knockdown of transporter gene target transcript, 0.1 nM” value in series [1] (0.1 nM siRNA) is given as “++ (70-90% mRNA knockdown)”. The “mRNA knockdown of transporter gene target transcript, 1 nM” value in series [1] (1 nM siRNA) was “++ (70-90% mRNA knockdown)”. Also, the “Growth Inhibition in A549 cells by 10 nM siRNA” value in series [2] is on record as “− (no growth inhibition)”.
On to “SEQ ID NO: 4939: siRNA targeting ATP2B1 (PMCA1) (chain 1 ATTAACAGTAAGTTGGAACTGAAGG; chain 2 AUUAACAGUAAGUUGGAACUGAAGG; chemistry not given here; one strand in two spellings)”, for which the “mRNA knockdown of transporter gene target transcript, 0.1 nM” value in series [1] (0.1 nM siRNA) is on record as “+ (50-70% mRNA knockdown)”. Also, the “mRNA knockdown of transporter gene target transcript, 1 nM” value in series [1] (1 nM siRNA) was “++ (70-90% mRNA knockdown)”. In series [2], the “Growth Inhibition in A549 cells by 10 nM siRNA” value is “− (no growth inhibition)”.
On to “SEQ ID NO: 4972: siRNA targeting ABCC4 (MRP4) (chain 1 AAATAGTTAAGGTCGAGGGCTGTCC; chain 2 AAAUAGUUAAGGUCGAGGGCUGUCC; chemistry not given here; one strand in two spellings)”, for which the “mRNA knockdown of transporter gene target transcript, 0.1 nM” value in series [1] (0.1 nM siRNA) is reported as “− (<50% mRNA knockdown)”. In series [1] (1 nM siRNA), the “mRNA knockdown of transporter gene target transcript, 1 nM” value was “++ (70-90% mRNA knockdown)”. In addition, the “Growth Inhibition in A549 cells by 10 nM siRNA” value in series [2] is “− (no growth inhibition)”.
On the same counts, the results for “SEQ ID NO: 4898: siRNA targeting SLC2A12 (GLUT12) (chain 1 TATTGTTGTTGGTTGACAGGTTTCC; chain 2 UAUUGUUGUUGGUUGACAGGUUUCC; Antisense strand given in DNA and RNA notation, chemistry not given here; one strand in two spellings)” are “+++ (>90% mRNA knockdown)”, “+++ (>90% mRNA knockdown)” and “− (no growth inhibition)”.
For the substance “SEQ ID NO: 4968: siRNA targeting ATP7B (chain 1 ATATCCCGTGGACCGATAATTTCCG; chain 2 AUAUCCCGUGGACCGAUAAUUUCCG; chemistry not given here; one strand in two spellings)”, the “mRNA knockdown of transporter gene target transcript, 0.1 nM” value in series [1] (0.1 nM siRNA) is given as “− (<50% mRNA knockdown)”. In series [1] (1 nM siRNA), the “mRNA knockdown of transporter gene target transcript, 1 nM” value was “++ (70-90% mRNA knockdown)”. In series [2], the “Growth Inhibition in A549 cells by 10 nM siRNA” value was “− (no growth inhibition)”.
On the same counts, the results for “SEQ ID NO: 4934: siRNA targeting SLC29A2 (ENT2) (chain 1 TGTGAAGACCAACACAAGGCACAGC; chain 2 UGUGAAGACCAACACAAGGCACAGC; chemistry not given here; one strand in two spellings)” are “+ (50-70% mRNA knockdown)”, “− (<50% mRNA knockdown)” and “− (no growth inhibition)”.
Turning to “SEQ ID NO: 5308: Stealth siRNA targeting RRM2 (chain 1 TTATACATCTGCCAGATATCATGGT; chain 2 UUAUACAUCUGCCAGAUAUCAUGGU; Stealth siRNA, chemical pattern not given here; one strand in two spellings)”, the “mRNA knockdown of energy and metabolism gene target transcript, 0.1 nM” value in series [1] (0.1 nM siRNA) is listed as “++ (70-90% mRNA knockdown)”. The “mRNA knockdown of energy and metabolism gene target transcript, 1 nM” value in series [1] (1 nM siRNA) is recorded as “++ (70-90% mRNA knockdown)”. Further, the “Growth Inhibition in A549 cells” value in series [2] is “++ (inhibits by at least 75%)”.
Consider “SEQ ID NO: 4902: siRNA targeting SLC7A5 (LAT1) (chain 1 AAAGAGGCCGCTGTATAATGCCAGC; chain 2 AAAGAGGCCGCUGUAUAAUGCCAGC; Antisense strand given in DNA and RNA notation, chemistry not given here; one strand in two spellings)”, for which the “mRNA knockdown of transporter gene target transcript, 0.1 nM” value in series [1] (0.1 nM siRNA) was “++ (70-90% mRNA knockdown)”. The “mRNA knockdown of transporter gene target transcript, 1 nM” value in series [1] (1 nM siRNA) is listed as “++ (70-90% mRNA knockdown)”. Further, the “Growth Inhibition in A549 cells by 10 nM siRNA” value in series [2] is reported as “+ (inhibits by at least 50%)”.
Take “SEQ ID NO: 4947: siRNA targeting ATP2B4 (PMCA4) (chain 1 ATTACGCACAGCCTGATAATCCTGC; chain 2 AUUACGCACAGCCUGAUAAUCCUGC; chemistry not given here; one strand in two spellings)”: the “mRNA knockdown of transporter gene target transcript, 0.1 nM” value in series [1] (0.1 nM siRNA) is given as “++ (70-90% mRNA knockdown)”. Further, in series [1] (1 nM siRNA), the “mRNA knockdown of transporter gene target transcript, 1 nM” value is “++ (70-90% mRNA knockdown)”. Also, the “Growth Inhibition in A549 cells by 10 nM siRNA” value in series [2] is reported as “− (no growth inhibition)”.
